Where two headings read alike, the source gives them in different places. Marks after values point to notes of the source that are not given here.
Key:
[1] = design: method as in PMID 21285983; settings: tumor-bearing immunocompetent mice; cited from earlier work
[2] = Toxicokinetics in the 1 month IV toxicology study in beagle dogs; type: in vivo; settings: dog, plasma
Method: A 1 month toxicology study of pixatimod in beagle dogs was performed under OECD Good Laboratory Practice (GLP) to assess the toxicity and toxicokinetic profile of pixatimod with 5 intravenous, short term (approximately 1 h) infusions at three defined dose levels of 2.5, 7.5 and 20 mg/kg weekly over 29 days. Blood samples were collected for toxicokinetic investigation to provide information on the systemic exposure. Parameters monitored included mortality and morbidity, clinical signs, food consumption, body weight and body temperature, ophthalmoscopy and electrocardiographic measurements. Laboratory investigations were performed using haematology (ADVIA 120), coagulation (AMAX Density Plus Coagulometer), clinical chemistry (VITROS 950) and urinalysis (URYXXON 300). At the end of the treatment, all animals were euthanized and subjected to a complete necropsy with selected organs weighed and followed by a detailed histopathology evaluation. Bone marrow smears from the femur and sternum were prepared at necropsy, fixed and stained with May-Grünwald and Giemsa stain for analysis. Blood samples obtained during the Phase Ia monotherapy study (PG545102) were collected weekly and the parameters reported herein were analysed by local hospital laboratories.
Plasma samples were analysed using a LC-MS/MS method as previously described. Pharmacokinetic parameters in animal studies were determined by non-compartmental analyses (NCA) of the mean plasma pixatimod concentration vs time profiles for each dose using the linear trapezoidal method in WinNonlin 5.2.1. For comparison with previous animal studies, exposure data (AUC0-last) in clinical samples were derived using individual subject NCA type exposure parameters from the original plasma concentration data using R (64-bit) Version 3.0.1.

[3] = tested on: advanced cancer patients; design: method as in PMID 29531325; settings: cited from earlier work
[4] = tested on: 4T1.2 cells; assay: Syngeneic 4T1.2 breast cancer model, tumor growth; type: in vivo, Balb/c mice; settings: day 18
Method: (§1) Female Balb/c mice (6–8 weeks) were obtained from the Walter & Eliza Hall Institute (Melbourne, Australia). Animal experiments were performed in accordance with institutional guidelines of the Peter MacCallum Cancer Centre. To determine the utility of pixatimod in combination with a PD-1 checkpoint inhibitor antibody (clone RMP1–14 or isotype control antibody 2A3, Bio-X-Cell, NH, USA), mice were inoculated with 1 × 10^5 4T1.2 cells into the mammary fatpad. One week later, mice with similar sized tumors (mean tumor volume 56 mm^3) were randomised into four groups (n = 6 mice per group): saline + isotype antibody, pixatimod + isotype antibody, saline + anti-PD-1 antibody and pixatimod + anti-PD-1 antibody. Pixatimod was administered at 15 mg/kg IP weekly for 3 weeks (days 1, 8 and 15) and anti-PD-1 or isotype antibody (200 μg) were given IP on days 1, 4, 8, 11 and 15. […]
In the 4T1.2 model, the percentage tumor growth inhibition was determined according to the following formula: 100 × (1-ΔT/ ΔC) where ΔC and ΔT were calculated by subtracting the mean tumor volume in each group on day 1 of treatment from the mean tumor volume on the day of analysis. […] The frequency of clinical observations, and necropsy and histopathology findings, was calculated as applicable. […]

[5] = design: method as in PMID 25754234; settings: Mouse, 15 mg/kg IV (HED 73 mg); cited from earlier work
[6] = tested on: 4T1.2 tumors; assay: Flow cytometry of immune cells in 4T1.2 tumors and spleens (satellite groups, day 11); type: in vivo, Balb/c mice
Method: as §1, with “15. The experiment was ended on day 18 post treatment initiation (25 days post inoculation) due to emerging toxicities in all treatment groups (e.g. piloerection).” for “15.”
Immune cells from the collagenase (Collagenase IV, Worthington Biochemical Corporation, NJ, USA) processed tumors and spleens were analysed by flow cytometry using an LSR II analyser (BD Biosciences). […]

CC(C)CCC[C@@H](C)[C@H]1CC[C@H]2[C@@H]3CC[C@H]4C[C@@H](O[C@@H]5O[C@H](COS(=O)(=O)O)[C@@H](O[C@H]6O[C@H](COS(=O)(=O)O)[C@@H](O[C@H]7O[C@H](COS(=O)(=O)O)[C@@H](O[C@H]8O[C@H](COS(=O)(=O)O)[C@@H](OS(=O)(=O)O)[C@H](OS(=O)(=O)O)[C@H]8OS(=O)(=O)O)[C@H](OS(=O)(=O)O)[C@H]7OS(=O)(=O)O)[C@H](OS(=O)(=O)O)[C@H]6OS(=O)(=O)O)[C@H](OS(=O)(=O)O)[C@H]5OS(=O)(=O)O)CC[C@]4(C)[C@H]3CC[C@]12C [pixatimod]
exposure (AUC) required to achieve efficacy as a monotherapy [1]: 687 µg·h/mL | AUC(0-t) ([2]; 2.5 mg/kg, 2.5 mg/kg weekly IV (HED 83 mg), read-out: AUC0-last Week 1): 697 µg·h/mL | AUC(0-t) ([2]; 2.5 mg/kg, 2.5 mg/kg weekly IV (HED 83 mg), read-out: AUC0-last Week 4): 1370 µg·h/mL | AUC(0-t) ([2]; 7.5 mg/kg, 7.5 mg/kg weekly IV (HED 250 mg), read-out: AUC0-last Week 1): 1810 µg·h/mL | AUC(0-t) ([2]; 7.5 mg/kg, 7.5 mg/kg weekly IV (HED 250 mg), read-out: AUC0-last Week 4): 4940 µg·h/mL | AUC(0-t) ([2]; 20 mg/kg, 20 mg/kg weekly IV (HED 666 mg), read-out: AUC0-last Week 1): 6880 µg·h/mL | AUC(0-t) ([2]; 20 mg/kg, 20 mg/kg weekly IV (HED 666 mg), read-out: AUC0-last Week 4): 10500 µg·h/mL | dose up to which the compound was well tolerated ([3]; IV infusion, monotherapy clinical trial): up to 100 mg | patients with treatment emergent adverse events possibly, likely, or certainly related to pixatimod ([3]; Phase Ia monotherapy trial): 20 | estimated median duration of SD [3]: 57 days | patients with stable disease (SD) at 8 weeks by RECIST 1.1 ([3]; of 16 patients with efficacy assessments): six | doses inducing flu-like symptoms in patients ([3]; required prophylactic paracetamol): ≥ 50 mg | disease control rate at 8 weeks ([3]; six of sixteen assessed): 38% | Tumor growth compared to the vehicle plus isotype antibody (Control) group [4]: significantly inhibited | tumor growth inhibition (%TGI) ([4]; pixatimod 15 mg/kg IP weekly x3, antibody 200 μg IP twice weekly): 68% | AUC0-last Week 1 [5]: 1358 ^c μg.h/mL | abundance of CD4+ or CD8+ T cells or NK cells in the spleens compared to control mice ([6]; day 11, spleens): little or no increase | intratumoral NK cells ([6]; pixatimod alone, 4T1.2 tumors): didn’t significantly increase

Reference: article PMC6000956, “Immunomodulatory activities of pixatimod: emerging nonclinical and clinical data, and its potential utility in combination with PD-1 inhibitors” (Journal for Immunotherapy of Cancer, 2018)
